Values joined by “and” are separate entries in the source; they are usually repeats but may differ in a detail not shown here. Equal entries are not always repeated.
What was measured:
K-Ras G12C = K-Ras G12C (Homo sapiens (Human), UniProt P01116+P62937, G12C); assay: Ras-Raf (BRAF RBD) disruption / FRET / MOA assay, KRAS G12C; format: biochemical; conditions: KRAS G12C; Ras-Raf disruption/FRET/MOA assay; read-out: IC50* KRAS G12C FRET data
How it was run: (§1)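 Compound-driven ternary complex of nucleotide-loaded Ras with cyclophilin A, disrupting BRAF RBD binding. 10-point 3-fold dilution from 30 μM final, 3 h at 25° C, then anti-His Eu-W1024 (10 nM) and anti-GST allophycocyanin (50 nM) for 1.5 h. IC50 from TR-FRET ratio decrease versus DMSO.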

KRAS G12S = KRAS G12S (Homo sapiens (Human), UniProt P01116+P62937, G12S); assay: Ras-Raf (BRAF RBD) disruption / FRET / MOA assay, KRAS G12S; format: biochemical; conditions: Ras-Raf disruption/FRET/MOA assay; class symbols; read-out: KRAS G12S FRET data IC50
How it was run: as §1

KRAS G12V = KRAS G12V (Homo sapiens (Human), UniProt P01116+P62937, G12V); assay: Ras-Raf (BRAF RBD) disruption / FRET / MOA assay, KRAS G12V; format: biochemical; conditions: read-out: IC50* KRAS G12V FRET data
How it was run: as §1

KRAS G13D = KRAS G13D (Homo sapiens (Human), UniProt P01116+P62937, G13D); assay: Ras-Raf (BRAF RBD) disruption / FRET / MOA assay, KRAS G13D; format: biochemical; conditions: read-out: IC50* KRAS G13D FRET data
How it was run: as §1

K-Ras G13C = K-Ras G13C (Homo sapiens (Human), UniProt P01116+P62937, G13C); assay: Ras-Raf (BRAF RBD) disruption / FRET / MOA assay, KRAS G13C; format: biochemical; conditions: KRAS G13C; Ras-Raf disruption/FRET/MOA assay; read-out: IC50* KRAS G13C FRET data
How it was run: as §1

NCI-H358 (K-Ras G12C) = assay: CellTiter-Glo cell viability assay, NCI-H358; format: cell-based, human; conditions: Homo sapiens, NCI-H358, 120 h, NCI-H358, 5-day treatment; class symbols; read-out: Additional H358 Cell Viability assay data (K-Ras G12C, IC50)
How it was run: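 Luminescent viability readout on day 5 after direct compound addition to plated cells; plates sat ~30 min at room temperature before reading. Values expressed as percent of mean DMSO signal, curves fit with a four-parameter logistic model.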

KRAS WT = KRAS WT (Homo sapiens (Human), UniProt P01116+P62937); assay: Ras-Raf (BRAF RBD) disruption / FRET / MOA assay, KRAS WT; format: biochemical; conditions: read-out: IC50* KRAS WT FRET data
How it was run: as §1

KRAS G12D = KRAS G12D (Homo sapiens (Human), UniProt P01116+P62937, G12D); assay: Ras-Raf (BRAF RBD) disruption / FRET / MOA assay, KRAS G12D; format: biochemical; conditions: Ras-Raf disruption/FRET/MOA assay; class symbols; read-out: KRAS G12D FRET data IC50
How it was run: as §1

NRAS G12C = NRAS G12C (Homo sapiens (Human), UniProt P01111+P62937, G12C); assay: Ras-Raf (BRAF RBD) disruption / FRET / MOA assay, NRAS G12C; format: biochemical; conditions: read-out: IC50* NRAS G12C FRET data
How it was run: as §1

[1] = system: NCI-H358 cells (K-Ras G12C); assay: Potency assay: pERK in NCI-H358 cells; format: cell-based, human; conditions: Homo sapiens, NCI-H358; H358 KRAS G12C; read-out: pERK EC50
How it was run: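 Compounds are dosed as ten 3-fold dilutions from a 10 mM DMSO stock, in duplicate, and left on cells for 4 h at 37 °C, 5% CO2. Phospho-ERK1/2 is then quantified by AlphaLISA SureFire Ultra or In-Cell Western, and IC50 is derived from a 4-parameter sigmoid against log concentration.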

Sequence of KRAS G12V (P01116-2 other isoform, or with tags, fused parts or gaps G12V): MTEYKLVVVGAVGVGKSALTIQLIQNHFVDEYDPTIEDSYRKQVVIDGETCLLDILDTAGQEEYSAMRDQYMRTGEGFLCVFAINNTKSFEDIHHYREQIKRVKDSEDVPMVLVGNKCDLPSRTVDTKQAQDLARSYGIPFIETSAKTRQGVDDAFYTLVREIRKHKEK
Sequence of KRAS G12V (P62937 whole entry): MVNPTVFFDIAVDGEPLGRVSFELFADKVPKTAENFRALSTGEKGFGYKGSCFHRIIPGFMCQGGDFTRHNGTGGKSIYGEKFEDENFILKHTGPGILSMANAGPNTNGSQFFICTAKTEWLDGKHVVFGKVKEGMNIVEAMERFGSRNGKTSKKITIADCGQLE
Sequence of KRAS G13D (P01116-2 other isoform, or with tags, fused parts or gaps G13D): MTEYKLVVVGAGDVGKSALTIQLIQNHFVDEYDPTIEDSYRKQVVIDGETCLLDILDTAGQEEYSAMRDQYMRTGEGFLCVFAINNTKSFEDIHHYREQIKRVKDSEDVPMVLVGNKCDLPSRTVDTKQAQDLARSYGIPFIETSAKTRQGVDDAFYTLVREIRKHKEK
Sequence of KRAS G13D (P62937 whole entry): as the sequence (P62937 whole entry) above
Sequence of K-Ras G12C (P01116-2 other isoform, or with tags, fused parts or gaps G12C): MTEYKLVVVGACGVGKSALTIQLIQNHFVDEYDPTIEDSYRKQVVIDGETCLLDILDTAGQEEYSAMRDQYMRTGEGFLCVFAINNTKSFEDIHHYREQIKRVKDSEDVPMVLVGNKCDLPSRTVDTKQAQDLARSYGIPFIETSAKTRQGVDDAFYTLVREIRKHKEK
Sequence of K-Ras G12C (P62937 whole entry): as the sequence (P62937 whole entry) above
Sequence of NRAS G12C (P01111 whole entry G12C): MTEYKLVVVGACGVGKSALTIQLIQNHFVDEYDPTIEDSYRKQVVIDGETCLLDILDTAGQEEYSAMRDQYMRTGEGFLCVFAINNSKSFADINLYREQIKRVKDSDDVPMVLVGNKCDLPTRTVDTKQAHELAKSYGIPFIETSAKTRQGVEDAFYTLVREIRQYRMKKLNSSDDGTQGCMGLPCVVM
Sequence of NRAS G12C (P62937 whole entry): as the sequence (P62937 whole entry) above
Sequence of KRAS WT (P01116-2 other isoform, or with tags, fused parts or gaps): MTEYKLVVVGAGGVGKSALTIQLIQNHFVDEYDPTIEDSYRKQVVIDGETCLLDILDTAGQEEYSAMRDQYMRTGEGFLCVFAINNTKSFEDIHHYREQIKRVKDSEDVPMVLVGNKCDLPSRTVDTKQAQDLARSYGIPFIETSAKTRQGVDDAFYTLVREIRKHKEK
Sequence of KRAS WT (P62937 whole entry): as the sequence (P62937 whole entry) above
Sequence of KRAS G12D (P01116-2 other isoform, or with tags, fused parts or gaps G12D): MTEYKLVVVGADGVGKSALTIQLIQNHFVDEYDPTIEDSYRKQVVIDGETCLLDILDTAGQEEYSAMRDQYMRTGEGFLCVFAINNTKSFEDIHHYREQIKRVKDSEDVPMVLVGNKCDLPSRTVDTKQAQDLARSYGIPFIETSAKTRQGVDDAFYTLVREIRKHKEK
Sequence of KRAS G12D (P62937 whole entry): as the sequence (P62937 whole entry) above
Sequence of K-Ras G13C (P01116-2 other isoform, or with tags, fused parts or gaps G13C): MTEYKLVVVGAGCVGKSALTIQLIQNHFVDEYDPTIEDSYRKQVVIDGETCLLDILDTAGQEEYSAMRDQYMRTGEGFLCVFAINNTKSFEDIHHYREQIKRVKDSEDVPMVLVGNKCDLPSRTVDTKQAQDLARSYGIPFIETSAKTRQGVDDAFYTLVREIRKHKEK
Sequence of K-Ras G13C (P62937 whole entry): as the sequence (P62937 whole entry) above
Sequence of KRAS G12S (P01116-2 other isoform, or with tags, fused parts or gaps G12S): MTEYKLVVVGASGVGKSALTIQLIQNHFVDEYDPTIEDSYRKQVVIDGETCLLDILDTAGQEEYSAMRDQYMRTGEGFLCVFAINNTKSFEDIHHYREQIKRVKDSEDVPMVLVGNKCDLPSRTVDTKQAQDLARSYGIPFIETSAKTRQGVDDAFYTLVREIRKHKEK
Sequence of KRAS G12S (P62937 whole entry): as the sequence (P62937 whole entry) above

Row | Structure (SMILES) | IC50 (K-Ras G12C) [µM] | IC50 (KRAS G12S) | IC50 (KRAS G12V) | IC50 (KRAS G13D) | IC50 (K-Ras G13C) | IC50 (NCI-H358 (K-Ras G12C)) [µM] | IC50 (KRAS WT) | IC50 (KRAS G12D) | IC50 (NRAS G12C) | EC50 [1] [µM]
1 | C=CC(=O)Nc1ccc(C(=O)N(C)[C@H](C(=O)N[C@H]2Cc3cc(O)cc(c3)-c3ccc4c(c3)c(c(-c3cccnc3[C@H](C)OC)n4CC)CC(C)(C)COC(=O)[C@@H]3CCCN(N3)C2=O)C(C)C)cn1 (atropisomer, axis not shown) [Example A250] | 0.01 to 0.1 | 0.1 to 1 µM and 1 to 10 µM | 0.1 to 1 µM and > 10 µM | 0.1 to 1 µM and > 10 µM | 0.01 to 0.1 µM and < 0.01 µM | 0.01 to 0.1 | 0.1 to 1 µM and 1 to 10 µM | 1 to 10 µM and > 10 µM | 0.01 to 0.1 µM and < 0.01 µM | < 5
2 | C=CC(=O)N1CC(OCC(C(=O)N[C@H]2Cc3cccc(c3)-c3ccc4c(c3)c(c(-c3cccnc3[C@H](C)OC)n4CC(F)(F)F)CC(C)(C)COC(=O)[C@@H]3CCCN(N3)C2=O)C(C)C)C1 (mixture of isomers) [Example A453] | 1 to 10 | > 10 µM | > 10 µM | > 10 µM | > 10 µM | 0.1 to 1 | > 10 µM | > 10 µM | 1 to 10 µM | < 5
3 | CCn1c(-c2cncnc2)c2c3cc(ccc31)-c1cccc(c1)C[C@H](NC(=O)[C@H](C(C)C)N(C)C(=O)[C@H]1CCN(C(=O)C#CCN3CCOCC3)C1)C(=O)N1CCC[C@H](N1)C(=O)OCC(C)(C)C2 [Example A185] | 0.1 to 1 | > 10 µM | > 10 µM | > 10 µM | > 10 µM | 0.1 to 1 | > 10 µM | > 10 µM | 0.1 to 1 µM | < 5
4 | C=CC(=O)N1CC(OCC(C(=O)N[C@H]2Cc3nc(cs3)-c3ccc4c(c3)c(c(-c3cccnc3[C@H](C)OC)n4CC)CC(C)(C)COC(=O)[C@@H]3CCCN(N3)C2=O)C(C)C)C1 (mixture of isomers) [Example A473] | 0.1 to 1 | 1 to 10 µM | 1 to 10 µM | 1 to 10 µM | 1 to 10 µM | 0.01 to 0.1 | 1 to 10 µM | > 10 µM | 0.1 to 1 µM | < 5
5 | CCn1c(-c2cccnc2[C@H](C)OC)c2c3cc(ccc31)-c1cccc(c1)C[C@H](NC(=O)[C@H](C(C)C)N(C)C(=O)[C@H]1CCN(C(=O)/C=C/C(F)F)C1)C(=O)N1CCC[C@H](N1)C(=O)OCC(C)(C)C2 (atropisomer, axis not shown) [Example A485] | 0.01 to 0.1 | 1 to 10 µM | 1 to 10 µM | 1 to 10 µM | 0.1 to 1 µM | < 0.01 | 1 to 10 µM | > 10 µM | 0.01 to 0.1 µM | < 5
6 | C=CC(=O)N1CC[C@H](C(=O)N(C)[C@H](C(=O)N[C@H]2Cc3cc(C(F)F)cc(n3)-c3ccc4c(c3)c(c(-c3cccnc3[C@H](C)OC)n4CC)CC(C)(C)COC(=O)[C@@H]3CCCN(N3)C2=O)C(C)C)C1 (atropisomer, axis not shown) [Example A441] | 1 to 10 | > 10 µM | > 10 µM | > 10 µM | 1 to 10 µM | 0.01 to 0.1 | > 10 µM | > 10 µM | 1 to 10 µM | < 5
7 | C=CC(=O)Nc1csc(C(=O)N(C)[C@H](C(=O)N[C@H]2Cc3cc(O)cc(c3)-c3ccc4c(c3)c(c(-c3cccnc3[C@H](C)OC)n4CC)CC(C)(C)COC(=O)[C@@H]3CCCN(N3)C2=O)C(C)C)n1 (atropisomer, axis not shown) [Example A259] | 0.1 to 1 | 1 to 10 µM | 1 to 10 µM | 1 to 10 µM | 0.01 to 0.1 µM | 0.1 to 1 | 0.1 to 1 µM | > 10 µM | 0.1 to 1 µM | < 5

Source: patent publication US11566007B2, “Ras inhibitors” (Revolution Medicines, Inc., priority 2019, dated 2023)
